Experimental findings from US20170152239A1, “BENZAMIDE AND HETEROBENZAMIDE COMPOUNDS” (PFIZER INC., priority 2012, published 2017) are described below.

Type in all cases: biochemical
The target of one assay is EZH2PRC2 mutant Y641N (Homo sapiens, UniProt Q15910, Y641N). Briefly: EZH2PRC2 mutant Y641N nucleosome assay. Particulars: read-out: EZH2PCR2 Mutant Y641N IC50. How it is done:
Nucleosome Assay Protocol:
A. Compound preparation • 1. Prepare 10 mM stock solutions in 100% DMSO from solid material • 2. Serial dilute 10 mM compound stocks either 2 or 3-fold in 100% DMSO to generate compounds for 11 point dose response
B. Reagent preparation • 1. Prepare 1× assay buffer containing 100 mM Tris pH 8.5, 4 mM DTT and 0.01% Tween-20 • 2. Dilute purified HeLA oligonucleosomes and recombinant histone H1 (New England Biolabs) in assay buffer to 1.67×. • 3. Dilute EZH2 4 protein complex (EZH2, EED, SUZ12, RbAp48) to 3.5× in assay buffer • 4. Prepare 10×^3H SAM solution in assay buffer using 0.94 μCi/well of radioactive SAM (Perkin Elmer) and sufficient non-labeled SAM (Sigma) for 1.5 μM final concentration. • 5. Dilute TCA to 20% in DI water
C. Enzyme reaction • 1. Final reaction conditions are 5 nM EZH2 4-protein complex, 1.5 μM SAM, 25 μg/mL oligonucleosomes, 50 nM rH1 in a 50 μl reaction volume. • 2. Add 1 μl of diluted compound to the assay plate (96-well V-bottom polypropylene plates) or 1 μl of DMSO for control wells. • 3. Add 30 μl of nucleosomes to the assay plate • 4. Add 14 μl of EZH2 4 protein complex to the assay plate • 5. Add 5 μl of ^3H SAM to start the reaction. • 6. Stop the reaction after 60 minutes with the addition of 100 μl of 20% TCA • 7. Transfer 150 μl of quenched reaction into a prepared filterplate (Millipore #MSIPN4B10) • 8. Apply vacuum to the filterplate to filter the reaction mix through the membrane. • 9. Wash the filterplate with 8×200 μl of PBS, blot dry and dry in an oven for 30 minutes • 10. Add 50 μl of microscint-20 scintillation fluid (Perkin Elmer) to each well, wait 30 minutes and count on a liquid scintillation counter.
D. Data analysis • 1. IC50 values were determined by fitting the data to a 4-parameter IC50 equation using proprietary curve fitting software.
Wild type (WT) EZH2% Effect at 20 μM and IC50 values (μM) generated in WT EZH2 or EZH2PRC2 mutant Y641N nucleosome assays are provided in Table 3 below. A blank entry in the table indicates the data was not generated in that assay.

Assay [1] deals with WT EZH2 (EZH2 4 protein complex: EZH2, EED, SUZ12, RbAp48) (Homo sapiens, UniProt O75530+Q09028+Q15022+Q15910). Briefly: WT EZH2 nucleosome assay. To be noted: nucleosome assay, 5 nM EZH2 4-protein complex, 1.5 μM SAM; read-out: WT EZH2 IC50. In a few lines:
(§1)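 Radiometric methyltransferase assay: 5 nM EZH2 four-protein complex, 1.5 μM 3H-SAM, 25 μg/mL HeLa oligonucleosomes, 50 nM recombinant H1 in 100 mM Tris pH 8.5, 4 mM DTT, 0.01% Tween-20. 60 min reaction, TCA quench, filter capture, scintillation counting; IC50 from 11-point 4-parameter fit; % effect at 20 μM.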

Assay [2] addresses WT EZH2 (EZH2 4 protein complex: EZH2, EED, SUZ12, RbAp48) (Homo sapiens, UniProt Q15910). Put plainly: WT EZH2 nucleosome assay. To be noted: compound at 20 μM; nucleosome assay. The gist of the method:
as §1

Sequence of EZH2PRC2 mutant Y641N (Q15910 whole entry Y641N): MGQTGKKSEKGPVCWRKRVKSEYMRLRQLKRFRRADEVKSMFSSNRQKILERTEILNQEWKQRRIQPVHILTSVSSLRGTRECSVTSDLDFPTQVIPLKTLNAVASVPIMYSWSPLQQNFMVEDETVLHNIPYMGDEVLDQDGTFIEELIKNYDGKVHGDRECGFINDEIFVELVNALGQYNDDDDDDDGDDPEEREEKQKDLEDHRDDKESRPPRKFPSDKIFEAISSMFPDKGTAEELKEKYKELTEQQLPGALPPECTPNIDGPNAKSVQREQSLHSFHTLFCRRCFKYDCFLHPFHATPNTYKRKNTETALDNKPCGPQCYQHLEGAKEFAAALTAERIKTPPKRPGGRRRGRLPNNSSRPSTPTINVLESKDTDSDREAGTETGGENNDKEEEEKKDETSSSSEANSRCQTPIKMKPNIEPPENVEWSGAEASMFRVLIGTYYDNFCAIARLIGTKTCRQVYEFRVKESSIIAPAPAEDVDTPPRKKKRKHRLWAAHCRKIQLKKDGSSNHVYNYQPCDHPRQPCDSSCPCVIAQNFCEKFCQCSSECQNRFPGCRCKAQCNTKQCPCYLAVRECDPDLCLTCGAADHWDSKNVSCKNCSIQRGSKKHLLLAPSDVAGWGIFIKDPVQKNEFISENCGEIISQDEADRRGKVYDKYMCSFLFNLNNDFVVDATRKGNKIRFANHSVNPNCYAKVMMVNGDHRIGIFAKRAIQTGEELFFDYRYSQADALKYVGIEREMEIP
Sequence of EZH2PRC2 mutant Y641N (O75530 whole entry partner): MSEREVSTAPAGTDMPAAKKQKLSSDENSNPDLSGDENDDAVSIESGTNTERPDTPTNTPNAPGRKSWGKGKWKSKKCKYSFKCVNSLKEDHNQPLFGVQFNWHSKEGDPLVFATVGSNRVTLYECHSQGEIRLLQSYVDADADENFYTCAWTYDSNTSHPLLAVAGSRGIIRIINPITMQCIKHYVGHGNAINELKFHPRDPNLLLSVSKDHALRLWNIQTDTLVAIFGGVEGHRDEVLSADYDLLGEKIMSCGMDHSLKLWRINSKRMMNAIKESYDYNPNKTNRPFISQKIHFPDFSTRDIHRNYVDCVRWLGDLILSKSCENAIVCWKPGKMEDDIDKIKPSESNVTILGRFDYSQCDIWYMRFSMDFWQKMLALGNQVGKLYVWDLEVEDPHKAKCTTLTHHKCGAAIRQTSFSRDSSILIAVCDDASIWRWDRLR
Sequence of EZH2PRC2 mutant Y641N (Q15022 whole entry partner): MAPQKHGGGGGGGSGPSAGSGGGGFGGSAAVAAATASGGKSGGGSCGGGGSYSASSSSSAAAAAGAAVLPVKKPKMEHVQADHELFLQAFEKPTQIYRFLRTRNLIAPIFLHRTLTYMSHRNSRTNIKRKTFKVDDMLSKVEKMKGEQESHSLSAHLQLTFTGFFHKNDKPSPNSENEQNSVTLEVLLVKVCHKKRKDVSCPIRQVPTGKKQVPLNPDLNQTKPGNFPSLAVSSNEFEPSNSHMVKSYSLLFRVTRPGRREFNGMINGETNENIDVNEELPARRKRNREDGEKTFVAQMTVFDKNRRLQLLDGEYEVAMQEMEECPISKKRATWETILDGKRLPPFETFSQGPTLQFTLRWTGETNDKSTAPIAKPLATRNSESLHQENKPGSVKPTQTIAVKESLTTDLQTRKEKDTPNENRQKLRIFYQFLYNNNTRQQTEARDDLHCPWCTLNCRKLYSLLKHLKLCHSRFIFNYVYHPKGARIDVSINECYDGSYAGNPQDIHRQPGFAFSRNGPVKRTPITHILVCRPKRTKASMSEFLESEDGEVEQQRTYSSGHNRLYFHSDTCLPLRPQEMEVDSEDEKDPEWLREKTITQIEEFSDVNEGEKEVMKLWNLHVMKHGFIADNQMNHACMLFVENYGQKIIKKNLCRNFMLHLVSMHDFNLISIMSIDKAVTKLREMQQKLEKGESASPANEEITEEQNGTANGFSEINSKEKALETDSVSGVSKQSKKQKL
Sequence of EZH2PRC2 mutant Y641N (Q09028 whole entry partner): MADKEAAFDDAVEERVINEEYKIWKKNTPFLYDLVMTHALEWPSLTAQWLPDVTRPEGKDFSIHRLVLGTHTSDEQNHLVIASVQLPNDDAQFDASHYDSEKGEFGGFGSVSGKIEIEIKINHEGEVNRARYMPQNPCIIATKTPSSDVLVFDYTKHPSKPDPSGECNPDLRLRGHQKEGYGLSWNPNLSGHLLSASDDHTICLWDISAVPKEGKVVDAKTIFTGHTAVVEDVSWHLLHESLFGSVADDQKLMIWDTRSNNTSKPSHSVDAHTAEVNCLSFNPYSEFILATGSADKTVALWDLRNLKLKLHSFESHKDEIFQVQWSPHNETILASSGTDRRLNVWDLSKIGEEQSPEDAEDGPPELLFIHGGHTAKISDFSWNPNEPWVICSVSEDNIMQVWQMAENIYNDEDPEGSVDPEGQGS
Sequence of WT EZH2 (EZH2 4 protein complex: EZH2, EED, SUZ12, RbAp48) (Homo sapiens, UniProt O75530+Q09028+Q15022+Q15910) (Q15910 whole entry): as the sequence (Q15910 whole entry Y641N) above, with N641Y counted along it
Sequence of WT EZH2 (EZH2 4 protein complex: EZH2, EED, SUZ12, RbAp48) (Homo sapiens, UniProt O75530+Q09028+Q15022+Q15910) (O75530 whole entry partner): as the sequence (O75530 whole entry partner) above
Sequence of WT EZH2 (EZH2 4 protein complex: EZH2, EED, SUZ12, RbAp48) (Homo sapiens, UniProt O75530+Q09028+Q15022+Q15910) (Q15022 whole entry partner): as the sequence (Q15022 whole entry partner) above
Sequence of WT EZH2 (EZH2 4 protein complex: EZH2, EED, SUZ12, RbAp48) (Homo sapiens, UniProt O75530+Q09028+Q15022+Q15910) (Q09028 whole entry partner): as the sequence (Q09028 whole entry partner) above
Sequence of WT EZH2 (EZH2 4 protein complex: EZH2, EED, SUZ12, RbAp48) (Homo sapiens, UniProt Q15910) (Q15910 whole entry): as the sequence (Q15910 whole entry Y641N) above, with N641Y counted along it
Sequence of WT EZH2 (EZH2 4 protein complex: EZH2, EED, SUZ12, RbAp48) (Homo sapiens, UniProt Q15910) (O75530 whole entry partner): as the sequence (O75530 whole entry partner) above
Sequence of WT EZH2 (EZH2 4 protein complex: EZH2, EED, SUZ12, RbAp48) (Homo sapiens, UniProt Q15910) (Q15022 whole entry partner): as the sequence (Q15022 whole entry partner) above
Sequence of WT EZH2 (EZH2 4 protein complex: EZH2, EED, SUZ12, RbAp48) (Homo sapiens, UniProt Q15910) (Q09028 whole entry partner): as the sequence (Q09028 whole entry partner) above

Broadly, the IC50 is the concentration needed to halve the response being measured. As for `Cc1cc(C)c(CNC(=O)c2cccc(OC(C)C)c2C)c(=O)[nH]1` [Example 32, N-((4,6-dimethyl-2-oxo-1,2-dihydropyridin-3-yl)methyl)-3-isopropoxy-2-methylbenzamide], the concentration for half-maximal inhibition (IC50) worked out at 11.2 µM on EZH2PRC2 mutant Y641N and 0.87 µM in assay [1]. Besides, the “% Effect in WT EZH2 at 20 μM” value in assay [2] is listed as 83.654%.
The matching figures for `COc1cccc(C(=O)NCc2c(C)cc(C)[nH]c2=O)c1Cl` [Example 79, 2-chloro-N-[(4,6-dimethyl-2-oxo-1,2-dihydropyridin-3-yl)methyl]-3-methoxybenza-mide]: 43.1 µM, 7.52 µM and 71.325%.
The matching figures for `COc1cccc(C(=O)NCc2c(C)cc(C)[nH]c2=O)c1C#N` [Example 135, 2-cyano-N-[(4,6-dimethyl-2-oxo-1,2-dihydropyridin-3-yl)methyl]-3-methoxybenz-amide]: greater than 200 µM, 141 µM and 62.306%.
